Source: ChEMBL document CHEMBL1143717, “Biologically active natural products from Mongolian medicinal plants Scorzonera divaricata and Scorzonera pseudodivaricata” (J Nat Prod, 2007)
Active and inactive are the calls of the source. No cut-off for these calls is given here.

System: Radical scavenging activity
Assay: Antioxidant activity assessed as DPPH radical scavenging activity
Format: functional

SMILES | Activity
CCCCCC(=O)O[C@H]1[C@H](Oc2cc(CC(=O)CCc3ccc(O)cc3)c(O)c(C(=O)O)c2)O[C@H](CO)[C@@H](O)[C@@H]1O | inactive
CC1=CC(=O)C2=C(C)C[C@H](OC(=O)CCc3ccc(OC4O[C@H](CO)[C@@H](O)[C@H](O)[C@H]4O)cc3)[C@@H]3[C@H](OC(=O)[C@H]3C)[C@@H]12 (some centres not stated) | inactive
